This note sets out measurements from ChEMBL document CHEMBL4043198, “Synthesis and electronic properties of ester substituted 1,4-dicyanodibenzodioxins and evaluation of anti-proliferative activity of all isomeric 1,2-, 2,3- and 1,4-dicyanodibenzodioxins against HeLa cell line” (Bioorg Med Chem Lett, 2017).

One may read the pIC50 as the IC50 on a negative log10 scale, so that one unit is a factor of ten.

Series [1] has as its system HeLa. The series can be described thus: Cytotoxicity against human HeLa cells assessed as reduction in cell viability after 24 hrs by MTT assay. The series is classed as functional, cell-based. (In general: Formazan colour is commonly taken as a measure of viable cells.)
Another series deals with HEK293. The experiment in a line: Cytotoxicity against HEK293 cells assessed as reduction in cell viability at 2 to 5 uM after 24 hrs by MTT assay. It counts as cell-based. To be noted: human, hek293, 24 h.
Series [2] deals with HeLa. The series can be described thus: Cytotoxicity against human HeLa cells assessed as reduction in cell viability at 2 to 50 uM after 24 hrs by MTT assay relative to control. It counts as functional.
For series [3], the system named is HeLa. The experiment in a line: Cytotoxicity against human HeLa cells assessed as cell viability at 2 uM after 24 hrs by MTT assay relative to control. To be noted: read-out: Activity. The series is classed as functional.
The species named for the next series is Bos taurus. The experiment in a line: Binding affinity to calf thymus DNA assessed as intrinsic binding constant by UV spectrophotometry.
In series [4] the test system is HeLa. The series can be described thus: Induction of reactive oxygen species generation in human HeLa cells at 5 to 10 uM after 24 hrs by DCFDA dye-based fluorescence assay. The series is classed as functional, cell-based.
The test system of series [5] is HeLa. The experiment in a line: Induction of morphological changes in human HeLa cells assessed as rounding-off of cells after 24 hrs by Hoechst 33258 staining based fluorescence microscopic analysis. It counts as functional, cell-based.
Series [6] concerns HeLa. The experiment in a line: Induction of morphological changes in human HeLa cells assessed as nuclear fragmentation after 24 hrs by Hoechst 33258 staining based fluorescence microscopic analysis. The series is classed as functional, cell-based.
Series [7] concerns HeLa. The experiment in a line: Induction of morphological changes in human HeLa cells assessed as loss of cell shape after 24 hrs by Hoechst 33258 staining based fluorescence microscopic analysis. It counts as functional.

pIC50: −log10 of the molar value. The source made the active and inactive calls. The calls are words filed in the database; no cut-off is given here.

Consider `N#Cc1c(F)c(F)c(C#N)c2c1Oc1ccccc1O2`, for which the figures for the Activity entry in the series with HeLa [1], in the series with HEK293 and in the series with HeLa [2] were “Dose-dependent effect”, “Non-Toxic” and 70 - 80%, respectively. The pIC50 in the series on HeLa [1] was 5.02.
For `N#Cc1cc2c(cc1C#N)Oc1cc([N+](=O)[O-])ccc1O2`, the Activity in the series on HeLa [2] is recorded as 70 - 80%.
With `COc1c(F)c(C#N)c2c(c1C#N)Oc1ccccc1O2`, the viability at 2 µM in the series with HeLa [3] was 30%. For the same molecule, the logKb in the series listed under Bos taurus was 5.38. For the same molecule, the outcome with HeLa [4] was Active. Moreover, the Activity result with HeLa [1] is “Dose-dependent effect”; with HEK293 it was “Non-Toxic”; in the series with HeLa [5] it was “Dose-dependent effect”; with HeLa [6], “Dose-dependent effect”; with HeLa [7], “Dose-dependent effect”. For the same molecule, the pIC50 in the series with HeLa [1] was 5.84.
As to `N#Cc1c(F)c(F)c2c(c1C#N)Oc1ccccc1O2`, in the series with HeLa [1], the Activity result is “Dose-dependent effect” and the pIC50 was 4.37. In addition, the Activity entry with HEK293 is listed as “Non-Toxic”.
For the molecule `CCN(CC)c1c(F)c(C#N)c2c(c1C#N)Oc1ccccc1O2`, in the series with HeLa [3], the viability at 2 µM was 30%. Besides, the logKb in the series filed under Bos taurus was determined as 5.5. In addition, the result with HeLa [4] was Active. Further, the Activity result with HeLa [1] was “Dose-dependent effect”; with HEK293 it was “Non-Toxic”; in the series on HeLa [5], “Dose-dependent effect”; in the series on HeLa [6], “Dose-dependent effect”; in the series with HeLa [7], “Dose-dependent effect”. Further, in the series with HeLa [1], the pIC50 was 5.83.
Take `N#Cc1cc2c(cc1C#N)Oc1cc(Br)ccc1O2`: the Activity result in the series with HeLa [1] is “Dose-dependent effect”; in the series with HEK293 it was “Non-Toxic”; with HeLa [2], 70 - 80%. For the same molecule, the negative logarithm of the IC50 (pIC50) in the series on HeLa [1] is 5.05.
In the case of `COC(=O)c1ccc2c(c1)Oc1c(C#N)c(F)c(F)c(C#N)c1O2`, the viability at 2 µM with HeLa [3] turned out to be 50%. In the series filed under Bos taurus, the logKb amounted to 5.39. Also, in the series with HeLa [4], the result was Active. For the same molecule, the Activity entry is “Dose-dependent effect” in the series on HeLa [1]; “Non-Toxic” in the series on HEK293; “Dose-dependent effect” with HeLa [5]; “Dose-dependent effect” in the series with HeLa [6]; “Dose-dependent effect” in the series on HeLa [7]. The pIC50 in the series with HeLa [1] was 5.52.
On to `O=c1[nH]cc(F)c(=O)[nH]1` [FLUOROURACIL], for which, in the series on HeLa [1], the pIC50 was 5.54.
Take `COC(=O)c1cccc2c1Oc1c(C#N)c(F)c(F)c(C#N)c1O2`: the viability at 2 µM with HeLa [3] worked out at 35%. Besides, the logKb in the series filed under Bos taurus came to 6. Moreover, the result in the series with HeLa [4] was Active. Also, the Activity result is “Dose-dependent effect” in the series with HeLa [1]; “Non-Toxic” in the series with HEK293; “Dose-dependent effect” with HeLa [5]; “Dose-dependent effect” with HeLa [6]; “Dose-dependent effect” in the series on HeLa [7]. In the series on HeLa [1], the pIC50 was 5.80.
As for `N#Cc1cc2c(cc1C#N)Oc1ccccc1O2`, the results for the Activity result with HeLa [1], in the series on HEK293 and in the series on HeLa [2] were “Dose-dependent effect”, “Non-Toxic” and 70 - 80%, respectively.
Regarding `CC/C(=C(\c1ccccc1)c1ccc(OCCN(C)C)cc1)c1ccccc1` [TAMOXIFEN], the pIC50 in the series on HeLa [1] was 5.05.
